Patent publication US4478834A, “Dihydropyridines and their use in the treatment of asthma” (USV Pharmaceutical Corporation, priority 1983, dated 1984)

Experiments:
[1] = system: Cyclic Nucleotide Phosphodiesterase (cNUC-PDE); assay: Cyclic Nucleotide Phosphodiesterase (cNUC-PDE) Assay; type: biochemical; details: compounds initially tested at 100 μM; enzyme source (dog heart or rat mast cell) not given
Description: Cyclic Nucleotide Phosphodiesterase (cNUC-PDE) Assay: CNUC-PDE was measured by a modification of the one-step procedure described by Thompson et al. (1979). The reaction was carried out in 7 ml scintillation vials. The reaction mixture consisted of 5 mM MgCl2., 50 mM tris-(hydroxymethyl)aminomethane buffered to pH 8.0 at 37° C. with hydrochloric acid (Tris-chloride), 1-2×10^5 cpm ^3 H-labeled cyclic nucleotide substrate, appropriate concentration of non-labeled cyclic nucleotide, 25 μg/ml lyophilized Ophiophagus hannah venom and appropriate enzyme for linear reaction conditions. The timed reactions were initiated by the addition of an enzyme, incubated at 37° C. for appropriate times for linear reaction rates, and stopped with the addition of 0.8 ml of 50% (v/v) AG 1×8 (200-400 mesh) ion-exchange resin in 50% (v/v) ethanol-Tris-acetate buffer (pH 8.0). The vials were vortexed and the resin mixture allowed to equilibrate for 15 min at 4° C. Scintillation fluid (4.5 ml) was added and radioactivity quantitated in a liquid scintillation counter.
Dog Heart Enzyme Preparations: Mongrel dogs were overdosed with Nembutal® and their hearts surgically removed. […]
Mast Cell Enzyme Preparations: Peritoneal cells were collected and mast cells purified by a procedure similar to that described by Yurt et al., (1977). […] The cells ([…]) were counted with a haemocytometer. […]

guinea pig lung = guinea pig lung inhibition
Description: The activity of a compound is expressed as % inhibition of net antigen-induced histamine release. In the case of an active compound the concentration of the compound required for 50% inhibition for AIR (I50) is determined.

[2] = Blood pressure in spontaneously hypertensive [SHR] rats; type: in vivo, rat; details: intraperitoneal (ip) dose of 100 mg/Kg, over 2 hours duration
Description: In spontaneously hypertensive [SHR] rats (as described in Laffan, R. J., Patterson, A., Hitch, S. W., Jeunelot, Technique for Prolonged Continuous Recording of Blood Pressures of Unrestricted Rats, Cardiovascular Research, Vol. 6, pp. 319-24, 1972),3,10b-dihydro-2,4-dimethyl-5-oxo-5H[1]benzopyrano[3,4-C]pyridine-1-carboxylic acid ethyl ester (Example 4D) administered intraperitoneal (ip) dose of 100 mg/Kg reduced blood pressure by 17-22% over 2 hours duration.

SMILES | PDE inhibition [1] [%] | guinea pig lung inhibition (guinea pig lung) [%] | reduced blood pressure [2]
CCOC(=O)C1=C(C)NC(C)=C2C(=O)Nc3ccccc3C21 (stereo not drawn) [Example 3C, 3,5,6,10b-Tetrahydro-2,4-dimethyl-5-oxo-benzo[c][2,7]naphthyridine-1-carboxylic acid ethyl ester] | < 60 | < 50 | 
CCOC(=O)C1=C(C)NC(C)=C2C(=O)Oc3ccccc3C12 (stereo not drawn) [Example 4D, 3,10b-Dihydro-2,4-dimethyl-5-oxo-5H[1]benzo-pyrano[3,4-c]pyridine-1-carboxylic acid ethyl ester] |  |  | 17-22%
